# In ChEMBL document CHEMBL2434831, “Imidazo[4,5-b]pyridine inhibitors of B-Raf kinase” (Bioorg Med Chem Lett, 2013):
# What was measured:
# [1] = target: T1, Serine/threonine-protein kinase B-raf (Homo sapiens, UniProt P15056, V600E); test: Inhibition of B-Raf V600E mutant in human Malme-3M cells assessed as basal ERK phosphorylation; assay type: cell-based
# [2] = target: T1, Serine/threonine-protein kinase B-raf; test: Inhibition of full length B-Raf V600E mutant (unknown origin)
# [3] = tested on: Serine/threonine-protein kinase B-raf (Homo sapiens), P15056 [V600E]; test: Ratio of IC50 for B-Raf V600E mutant in human Malme-3M cells to IC50 for full length B-Raf V600E mutant (unknown origin); assay type: cell-based
# [4] = Permeability from apical to basolateral side in human Caco2 cells; assay type: ADME, cell-based; conditions: Caco-2, read-out: permeability
# [5] = Inhibition of cytochrome P450 (unknown origin); assay type: ADME; conditions: human
# Serine/threonine-protein kinase B-raf (Homo sapiens), P15056 [V600E], sequence (P15056 whole entry V600E): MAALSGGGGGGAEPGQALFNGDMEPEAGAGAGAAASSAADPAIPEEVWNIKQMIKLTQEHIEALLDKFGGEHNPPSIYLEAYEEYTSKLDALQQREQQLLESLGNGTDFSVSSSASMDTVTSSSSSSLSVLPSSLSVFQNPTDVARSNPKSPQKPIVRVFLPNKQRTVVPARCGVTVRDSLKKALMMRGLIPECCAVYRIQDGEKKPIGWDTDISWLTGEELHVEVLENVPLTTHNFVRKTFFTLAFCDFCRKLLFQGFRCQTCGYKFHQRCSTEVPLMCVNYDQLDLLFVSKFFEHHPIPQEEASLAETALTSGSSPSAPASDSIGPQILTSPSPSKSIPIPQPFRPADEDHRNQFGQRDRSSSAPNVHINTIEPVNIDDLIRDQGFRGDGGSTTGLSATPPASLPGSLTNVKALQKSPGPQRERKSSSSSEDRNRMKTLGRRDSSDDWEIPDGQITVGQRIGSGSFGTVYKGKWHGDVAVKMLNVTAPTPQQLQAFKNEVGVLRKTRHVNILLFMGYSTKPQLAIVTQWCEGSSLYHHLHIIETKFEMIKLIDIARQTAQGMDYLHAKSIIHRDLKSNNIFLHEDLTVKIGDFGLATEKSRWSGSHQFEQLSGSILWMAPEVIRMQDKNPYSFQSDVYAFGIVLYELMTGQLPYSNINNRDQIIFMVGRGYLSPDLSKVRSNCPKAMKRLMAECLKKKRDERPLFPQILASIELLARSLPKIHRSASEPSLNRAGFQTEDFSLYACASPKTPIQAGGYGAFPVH
# T1 sequence (P15056 2-766 V600E limits assumed): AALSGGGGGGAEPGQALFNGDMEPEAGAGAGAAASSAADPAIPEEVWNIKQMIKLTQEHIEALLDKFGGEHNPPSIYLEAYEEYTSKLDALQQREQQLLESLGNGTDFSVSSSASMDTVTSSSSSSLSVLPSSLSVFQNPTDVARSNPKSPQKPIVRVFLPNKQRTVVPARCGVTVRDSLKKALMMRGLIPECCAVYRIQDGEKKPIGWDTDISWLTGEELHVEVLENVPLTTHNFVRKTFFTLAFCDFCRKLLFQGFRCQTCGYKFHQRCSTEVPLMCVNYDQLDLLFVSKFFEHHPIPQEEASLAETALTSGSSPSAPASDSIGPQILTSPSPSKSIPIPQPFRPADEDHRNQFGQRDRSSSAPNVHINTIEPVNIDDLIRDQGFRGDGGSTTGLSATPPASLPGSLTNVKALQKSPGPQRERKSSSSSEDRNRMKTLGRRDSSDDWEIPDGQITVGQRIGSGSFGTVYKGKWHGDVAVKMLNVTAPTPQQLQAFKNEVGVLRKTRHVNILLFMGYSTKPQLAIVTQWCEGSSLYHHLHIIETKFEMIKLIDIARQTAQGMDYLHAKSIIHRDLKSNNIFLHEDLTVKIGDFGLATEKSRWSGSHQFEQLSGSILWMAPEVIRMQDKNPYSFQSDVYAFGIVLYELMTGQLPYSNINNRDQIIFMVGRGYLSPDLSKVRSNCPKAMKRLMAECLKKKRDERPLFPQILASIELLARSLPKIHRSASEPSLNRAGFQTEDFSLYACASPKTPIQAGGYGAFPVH
Structure (SMILES),IC50 [1],IC50 [2],Ratio IC50 [3],Papp A→B [4],inhibition (INH) [5]
CCCS(=O)(=O)Nc1ccc(F)c(C(=O)Nc2cnc3[nH]c(-c4ccc(Cl)cc4)cc3c2)c1F,20 nM,2.4 nM,8.4,–,–
CCCS(=O)(=O)Nc1ccc(F)c(C(=O)Nc2cnc3[nH]c(C4CCNCC4)nc3c2)c1F,> 10000 nM,107 nM,> 93,–,–
CCCS(=O)(=O)Nc1ccc(F)c(C(=O)Nc2cnc3cc(-c4ccc(F)cc4)nn3c2)c1F,–,–,4.9,–,–
CCCS(=O)(=O)Nc1ccc(F)c(C(=O)Nc2cnc3[nH]c(-c4ccccc4Cl)nc3c2)c1F,557 nM,27 nM,21,–,–
CCCS(=O)(=O)Nc1ccc(F)c(C(=O)Nc2cnc3[nH]c(-c4cccnc4)nc3c2)c1F,1130 nM,3 nM,375,–,–
CCCS(=O)(=O)Nc1ccc(F)c(C(=O)Nc2cnc3[nH]c(-c4ccc(F)c(F)c4)nc3c2)c1F,194 nM,3.4 nM,57,–,–
CCCS(=O)(=O)Nc1ccc(F)c(C(=O)Nc2cnc3[nH]c(-c4cccc(C(F)(F)F)c4)nc3c2)c1F,113 nM,1 nM,112,–,–
CCCS(=O)(=O)Nc1ccc(F)c(C(=O)Nc2cnc3[nH]c(C(C)(C)C)nc3c2)c1F,1560 nM,69 nM,23,–,–
CCCS(=O)(=O)Nc1ccc(F)c(C(=O)Nc2cnc3[nH]c(-c4ccncc4)nc3c2)c1F,1910 nM,3.2 nM,596,–,–
CCCS(=O)(=O)Nc1ccc(F)c(C(=O)Nc2cnc3[nH]c(-c4cccc(F)c4)nc3c2)c1F,298 nM,3.1 nM,97,–,–
CCCS(=O)(=O)Nc1ccc(F)c(C(=O)Nc2cnc3[nH]c(-c4cccc(Br)c4)nc3c2)c1F,172 nM,0.76 nM,226,–,–
CCCS(=O)(=O)Nc1ccc(F)c(C(=O)Nc2cnc3[nH]c(-c4ccc(F)cc4)nc3c2)c1F,1050 nM,4.4 nM,240,–,–
CCCS(=O)(=O)Nc1ccc(F)c(C(=O)Nc2cnc3ccnn3c2)c1F,–,–,–,11.4 ×10⁻⁶ cm/s,–
CCCS(=O)(=O)Nc1ccc(F)c(C(=O)Nc2cnc3[nH]c(C(C)C)nc3c2)c1F,1730 nM,60 nM,29,–,–
CCCS(=O)(=O)Nc1ccc(F)c(C(=O)Nc2cnc3[nH]c(C)nc3c2)c1F,1710 nM,40 nM,43,–,–
CCCS(=O)(=O)Nc1ccc(F)c(C(=O)Nc2cnc3[nH]ccc3c2)c1F,–,42 nM,–,7.3 ×10⁻⁶ cm/s,–
CCCS(=O)(=O)Nc1ccc(F)c(C(=O)Nc2cnc3[nH]c(-c4ccccc4)nc3c2)c1F,132 nM,1.6 nM,–,–,–
CCCS(=O)(=O)Nc1ccc(F)c(C(=O)Nc2cnc3[nH]c(-c4ccc(C)cc4)nc3c2)c1F,49 nM,1.3 nM,38,2.6 ×10⁻⁶ cm/s,–
CCCS(=O)(=O)Nc1ccc(F)c(C(=O)Nc2cnc3[nH]c(-c4cccc(OC)c4)nc3c2)c1F,271 nM,1.2 nM,219,–,–
CCCS(=O)(=O)Nc1ccc(F)c(C(=O)Nc2cnc3[nH]c(-c4ccc(C(F)(F)F)cc4)nc3c2)c1F,89 nM,1.4 nM,62,1 ×10⁻⁶ cm/s,–

Structure (SMILES),IC50 [1],IC50 [2],Ratio IC50 [3],Papp A→B [4],inhibition (INH) [5]
CCCS(=O)(=O)Nc1ccc(F)c(C(=O)Nc2cnc3[nH]c(-c4ccc(Cl)c(Cl)c4)nc3c2)c1F,81 nM,1.5 nM,54,2 ×10⁻⁶ cm/s,Not Active
CCCS(=O)(=O)Nc1ccc(F)c(C(=O)Nc2cnc3[nH]c(-c4ccc(Br)cc4)nc3c2)c1F,61 nM,2.2 nM,28,1.3 ×10⁻⁶ cm/s,–
CCCS(=O)(=O)Nc1ccc(F)c(C(=O)Nc2cnc3[nH]c(-c4ccccc4Br)nc3c2)c1F,948 nM,27 nM,35,–,–
CCCS(=O)(=O)Nc1ccc(F)c(C(=O)Nc2cnc3cc(-c4ccc(Cl)cc4)nn3c2)c1F,90 nM,8.2 nM,11,–,–
CCCS(=O)(=O)Nc1ccc(F)c(C(=O)Nc2cnc3[nH]c(-c4cccc(Cl)c4)nc3c2)c1F,68 nM,1.1 nM,62,–,–
CCCS(=O)(=O)Nc1ccc(F)c(C(=O)Nc2cnc3[nH]c(CC)nc3c2)c1F,1770 nM,59 nM,30,–,–
CCCS(=O)(=O)Nc1ccc(F)c(C(=O)Nc2cnc3cc(-c4ccccc4)nn3c2)c1F,–,–,–,15.6 ×10⁻⁶ cm/s,–
CCCS(=O)(=O)Nc1ccc(F)c(C(=O)Nc2cnc3[nH]c(-c4ccc(S(C)(=O)=O)cc4)nc3c2)c1F,728 nM,1.4 nM,527,–,–
CCCS(=O)(=O)Nc1ccc(F)c(C(=O)Nc2cnc3[nH]c(-c4ccc(F)cc4)cc3c2)c1F,20 nM,1.1 nM,18,–,–
CCCS(=O)(=O)Nc1ccc(F)c(C(=O)Nc2cnc3[nH]c(-c4ccccc4)cc3c2)c1F,32 nM,1 nM,32,5.6 ×10⁻⁶ cm/s,–
CCCS(=O)(=O)Nc1ccc(F)c(C(=O)Nc2cnc3[nH]c(C4CCCNC4)nc3c2)c1F (stereo not drawn),> 10000 nM,167 nM,> 60,–,–
CCCS(=O)(=O)Nc1ccc(F)c(C(=O)Nc2cnc3[nH]c(-c4ccc(OC)cc4)nc3c2)c1F,137 nM,1.1 nM,125,–,–
CCCS(=O)(=O)Nc1ccc(F)c(C(=O)Nc2cnc3[nH]cnc3c2)c1F,–,–,39,0.6 ×10⁻⁶ cm/s,–
CCCS(=O)(=O)Nc1ccc(F)c(C(=O)Nc2cnc3[nH]c(-c4ccccc4F)nc3c2)c1F,167 nM,8 nM,21,–,–
CCCS(=O)(=O)Nc1ccc(F)c(C(=O)Nc2cnc3[nH]ncc3c2)c1F,–,18 nM,–,1.3 ×10⁻⁶ cm/s,–
CCCS(=O)(=O)Nc1ccc(F)c(C(=O)Nc2cnc3[nH]c(-c4ccc(OC(F)(F)F)cc4)nc3c2)c1F,86 nM,2.5 nM,34,–,–
CCCS(=O)(=O)Nc1ccc(F)c(C(=O)Nc2cnc3[nH]c(-c4ccc(Cl)cc4)nc3c2)c1F,157 nM,2.2 nM,71,–,–
CCCS(=O)(=O)Nc1ccc(F)c(C(=O)Nc2cnc3[nH]c(C4CCC4)nc3c2)c1F,3330 nM,31 nM,107,–,–
CCCS(=O)(=O)Nc1ccc(F)c(C(=O)Nc2cnc3[nH]c(-c4ccc(C#N)cc4)nc3c2)c1F,239 nM,2.7 nM,88,–,–
